Measurements from patent publication US20220241249A1, “PHARMACEUTICAL COMPOSITION AND KIT CONTAINING NOVEL PENAM DERIVATIVE OR SALT THEREOF AND ONE OR MORE COMPOUNDS SELECTED FROM beta-LACTAMASE INHIBITORY COMPOUND AND ANTIBACTERIAL COMPOUND OR SALTS THEREOF” (priority 2019, published 2022).
Converted amounts (≈) assume the structure as drawn. Like-named read-outs stand apart in the source and are kept apart here.

Columns and labels:
[1] = test system: AmpC-derepressed Pseudomonas aeruginosa mutant strain (S-3028); assay: Antibacterial activity evaluation test, MIC by broth microdilution (CLSI); type: cell-based; conditions: for MIC: Pseudomonas aeruginosa
Summary of the method: (§1)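 Overnight Mueller Hinton agar cultures were suspended to 0.5 McFarland, diluted 10-fold and used to inoculate cation-adjusted Mueller Hinton broth containing test compound. Plates were incubated at 35° C. for 16 to 20 hours; MIC (μg/mL) was the lowest concentration without visible growth.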

[2] = test system: CTX-M-15-containing Escherichia coli strain (TK-1747); assay: as above; type: cell-based; conditions: for MIC: Escherichia coli
Summary of the method: as §1

[3] = test system: GES-19 and GES-20-containing Pseudomonas aeruginosa strain (S-3759); assay: as above; type: cell-based; conditions: for MIC: Pseudomonas aeruginosa
Summary of the method: as §1

[4] = test system: IMP-1-containing Pseudomonas aeruginosa strain (S-2838); assay: as above; type: cell-based; conditions: for MIC: Pseudomonas aeruginosa
Summary of the method: as §1

[5] = test system: KPC-2-containing Klebsiella pneumoniae strain (Y-995); assay: as above; type: cell-based; conditions: for MIC: Klebsiella pneumoniae
Summary of the method: as §1

[6] = test system: NDM-1-containing Klebsiella pneumoniae strain (Y-1007); assay: as above; type: cell-based; conditions: for MIC: Klebsiella pneumoniae
Summary of the method: as §1

[7] = test system: OXA-48-containing Klebsiella pneumoniae strain (Y-1062); assay: as above; type: cell-based; conditions: for MIC: Klebsiella pneumoniae
Summary of the method: as §1

[8] = test system: Pseudomonas aeruginosa strain ATCC27853; assay: as above; type: cell-based; conditions: Pseudomonas aeruginosa, ATCC27853
Summary of the method: as §1

[9] = test system: VIM-2-containing Pseudomonas aeruginosa strain (S-3779); assay: as above; type: cell-based; conditions: for MIC: Pseudomonas aeruginosa
Summary of the method: as §1

[10] = test system: multidrug-resistant Pseudomonas aeruginosa strain (S-2838 strain); assay: Test for protection against systemic infection in mouse with multidrug-resistant Pseudomonas aeruginosa; type: in vivo; conditions: sc, 72 h, read-out: survival rate 3 days after the inoculation with bacteria
Experimental: As mice, ICR male SPF mice (4 weeks old: 10 mice per group) were used. Clinically isolated multidrug-resistant Pseudomonas aeruginosa strain (S-2838 strain) cultured overnight on a Mueller-Hinton agar plate at 37° C. was cultured on a cation-adjusted Mueller Hinton medium for 5 hours, and then diluted 20-fold with a 10% mucin/phosphate buffer, thereby preparing an inoculum. An infection was induced by intraperitoneally inoculating the mice with the inoculum at 0.5 mL (about 10^6 CFU/mouse). Each test compound was dissolved in physiological saline, and 1 hour after the infection, the compound was subcutaneously administered once to the mice at 40 mg/kg. The control group was administered with the same amount of physiological saline used as a vehicle. The number of surviving mice was recorded 3 days after the infection.
A test for protection against systemic infection in a mouse with multidrug-resistant Pseudomonas aeruginosa was performed in the same manner as in Test Example 2.

[11] = test system: Klebsiella pneumoniae Y-1020 strain producing KPC-3 and SHV-12 (strain B); assay: MIC of test compound alone or with β-lactamase inhibitor at 4 μg/mL; type: cell-based; conditions: Klebsiella pneumoniae, Strain B, read-out: MIC
Experimental: (§2) By using a broth microdilution method, the combinational effect of a test compound and a β-lactamase inhibitor was evaluated.
(§3) The evaluation test for antibacterial activity was performed in the same manner as in Test Example 1.

[12] = test system: Klebsiella pneumoniae Y-1133 strain producing NDM-1, OXA-48, and CTX-M-15 (strain C); assay: as above; type: cell-based; conditions: Klebsiella pneumoniae, with ZID at 4 μg/mL
Experimental: as §2, §3
Klebsiella pneumoniae Y-1133 strain producing NDM-1, OXA-48, and CTX-M-15 (hereinafter, called strain C),
(§4) An antibacterial activity evaluation test was performed in the same manner as in Test Example 6.
(§5) As the bacterial strain, the strains B, C, and D producing β-lactamase and a Klebsiella pneumoniae Y-1069 strain (hereinafter, called strain F) producing OXA-48 and CTX-M-15 were used.

[13] = test system: Escherichia coli TK-3113 strain producing IMP-8 (strain D); assay: as above; type: cell-based; conditions: Escherichia coli
Experimental: as §2, §3
Escherichia coli TK-3113 strain producing IMP-8 (hereinafter, called strain D),
as §4, §5

[14] = test system: Klebsiella pneumoniae Y-1069 strain producing OXA-48 and CTX-M-15 (strain F); assay: as above; type: cell-based; conditions: for MIC: Klebsiella pneumoniae, Strain F
Experimental: as §3, §4, §5

[15] = test compound alone (β-lactamase inhibitor N/A)

`CC(C)(O/N=C(\C(=O)NC1C(=O)N2C[C@@](C(=O)O)(N3CCN(NC(=O)/C(=N\O)c4ccc(O)c(O)c4Cl)C3=O)S[C@H]12)c1csc(N)n1)C(=O)O` (stereo partly drawn) [Example 117] was tested, and the MIC [1] was 0.25 mg/L (≈ 0.331 µM), the MIC [2] was 0.12 mg/L (≈ 0.159 µM) and the MIC [3] was 2 mg/L (≈ 2.65 µM). The MIC [4] was 2 mg/L (≈ 2.65 µM), the MIC [5] was 0.25 mg/L (≈ 0.331 µM) and the MIC [6] was under 0.06 mg/L. It also gave an MIC [7] of 0.5 mg/L (≈ 0.661 µM), an MIC [8] of 2 mg/L (≈ 2.65 µM) and an MIC [9] of 0.5 mg/L (≈ 0.661 µM). For the same molecule, the responders at 40 mg/kg [10] was at least 90%.
Molecule `CC(C)(O/N=C(\C(=O)NC1C(=O)N2C[C@@](C(=O)O)(N3CCN(NC(=O)CCNC(=O)/C(=N\O)c4ccc(O)c(O)c4Cl)C3=O)S[C@H]12)c1csc(N)n1)C(=O)O` (stereo partly drawn) [Example 122] has an MIC [1] of 2 mg/L (≈ 2.42 µM), an MIC [2] of 0.5 mg/L (≈ 0.604 µM) and an MIC [3] of 2 mg/L (≈ 2.42 µM). For the same molecule, the MIC [4] was 2 mg/L (≈ 2.42 µM), the MIC [5] was 0.5 mg/L (≈ 0.604 µM) and the MIC [6] was under 0.06 mg/L. It also gave an MIC [7] of 1 mg/L (≈ 1.21 µM), an MIC [8] of 1 mg/L (≈ 1.21 µM) and an MIC [9] of 2 mg/L (≈ 2.42 µM). It also gave a responders at 40 mg/kg [10] of at least 90%.
Work on `COCC(NC(=O)C(=O)c1ccc(O)c(O)c1Cl)C(=O)NN1CCN([C@]2(C(=O)O)CN3C(=O)C(NC(=O)/C(=N\OC(C)(C)C(=O)O)c4csc(N)n4)[C@H]3S2)C1=O` (stereo partly drawn) [Example 139, (3R,5R,6R)-6-((Z)-2-(2-aminothiazol-4-yl)-2-(((2-carboxypropan-2-yl)oxy)imino)aceta-mido)-3-(3-((R)-2-(2-(2-chloro-3,4-dihy-droxyphenyl)-2-oxo-acetamido)-3-methoxy-propanamido)-2-oxo-imidazolidin-1-yl)-7-oxo-4-thia-1-azabicyclo-[3.2.0]heptane-3-car-boxylic acid] yielded an MIC [1] of 0.5 mg/L (≈ 0.594 µM), an MIC [2] of 2 mg/L (≈ 2.37 µM) and an MIC [3] of 2 mg/L (≈ 2.37 µM). The MIC [4] was 0.5 mg/L (≈ 0.594 µM), the MIC [5] was 1 mg/L (≈ 1.19 µM) and the MIC [6] was 0.12 mg/L (≈ 0.142 µM). The MIC [7] was 4 mg/L (≈ 4.75 µM), the MIC [8] was 1 mg/L (≈ 1.19 µM) and the MIC [9] was 1 mg/L (≈ 1.19 µM). For the same molecule, the responders at 40 mg/kg [10] was at least 90%.
`C=C(O/N=C(\C(=O)NC1C(=O)N2C[C@@](C(=O)O)(N3CCN(NC(=O)C(=O)c4ccc(O)c(O)c4Cl)C3=O)S[C@H]12)c1csc(N)n1)C(=O)O` (stereo partly drawn) [Example 144, (3R,5R,6R)-6-((Z)-2-(2-aminothiazol-4-yl)-2-(((1-carboxyvinyl)-oxy)imino)acetamido)-3-(3-(2-(2-chloro-3,4-dihydroxyphenyl)-2-oxoacetamido)-2-oxo-imidazolidin-1-yl)-7-oxo-4-thia-1-azabicyclo-[3.2.0]heptane-3-car-boxylic acid] gave an Antibacterial activity (MIC) Pseudomonas aeruginosa S-3028 ([1]; Pseudomonas aeruginosa S-3028) of under 0.12 mg/L, an Antibacterial activity (MIC) Escherichia coli TK-1747 ([2]; Escherichia coli TK-1747) of under 0.12 mg/L and an Antibacterial activity (MIC) Pseudomonas aeruginosa S-3759 ([3]; Pseudomonas aeruginosa S-3759) of 1 mg/L. For the same molecule, the Antibacterial activity (MIC) Pseudomonas aeruginosa S-2838 ([4]; Pseudomonas aeruginosa S-2838) was 32 mg/L, the Antibacterial activity (MIC) Klebsiella pneumoniae Y-995 ([5]; Klebsiella pneumoniae Y-995) was under 0.12 mg/L and the Antibacterial activity (MIC) Klebsiella pneumoniae Y-1007 ([6]; Klebsiella pneumoniae Y-1007) was under 0.12 mg/L. The Antibacterial activity (MIC) Klebsiella pneumoniae Y-1062 ([7]; Klebsiella pneumoniae Y-1062) was 0.5 mg/L, the Antibacterial activity (MIC) Pseudomonas aeruginosa ATCC 27853 [8] was 0.25 mg/L and the Antibacterial activity (MIC) Pseudomonas aeruginosa S-3779 ([9]; Pseudomonas aeruginosa S-3779) was 0.25 mg/L. For the same molecule, the MIC [11, 15] was 1 mg/L, the MIC ([11]; with AVI at 4 μg/mL) was 0.25 mg/L and the MIC ([11]; with CVA at 4 μg/mL) was 0.25 mg/L. It also gave an MIC ([11]; with NAC at 4 μg/mL) of under 0.015 mg/L, an MIC ([11]; with ZID at 4 μg/mL) of 0.03 mg/L and an MIC [12] of under 0.015 mg/L. The MIC [13, 15] was 0.5 mg/L, the MIC ([13]; with AVI at 4 μg/mL) was 0.25 mg/L and the MIC ([13]; with CVA at 4 μg/mL) was 0.25 mg/L. It also gave an MIC ([13]; with NAC at 4 μg/mL) of under 0.015 mg/L, an MIC ([13]; with SBT at 4 μg/mL) of 0.25 mg/L and an MIC ([13]; with TAZ at 4 μg/mL) of 0.125 mg/L. It also gave an MIC ([13]; with ZID at 4 μg/mL) of under 0.015 mg/L, an MIC [14, 15] of 4 mg/L and an MIC ([14]; with AVI at 4 μg/mL) of 0.25 mg/L. The MIC ([14]; with CVA at 4 μg/mL) was 2 mg/L, the MIC ([14]; with NAC at 4 μg/mL) was 0.06 mg/L and the MIC ([14]; with SBT at 4 μg/mL) was 2 mg/L. The MIC ([14]; with TAZ at 4 μg/mL) was 2 mg/L, the MIC ([14]; with ZID at 4 μg/mL) was 0.03 mg/L and the “antibacterial activity in combination with a β-lactamase inhibitor versus without” value ([14]; for all the bacterial strains (strains B, C, D and F), summary of Tables 51 and 52) was “higher antibacterial activity”.
